molecular target: Phosphatidylinositol 4-kinase beta (Homo sapiens, UniProt Q9UBF8); assay: Kinase Glo Luminescent Kinase Assay
From the text: PI 3-Kinase Alpha (A), Pb 3-Kinase Beta (B), Vps34 (C), PI 4-Kinase Beta (D):The luminescence-based ATP detection reagent KinaseGlo was obtained from Promega, (Cat. No. V6714, Lot No. 236161) through Catalys, Wallisellen, Switzerland. L-alpha-phosphatidylinositol (PI, liver, bovine) was obtained from Avanti Polar Lipid (Cat. No. 840042C, Lot#LPI-274), Phosphatidylinositol-4,5-bisphosphate (PIP(4,5)2) was also obtained from Avanti Polar Lipid (Cat. No. 840046X). L-α-Phosphatidylserine (PS) was obtained from Avanti Polar Lipid (Cat. No. 840032C), n-Octylglucoside from Avanti Polar Lipid (Cat. No. 10634425001). Luminescence is a well established readout to determine ATP concentrations and can thus be used to follow the activity of many kinases regardless of their substrate. The Kinase Glo Luminescent Kinase Assay (Promega, Madison/WI, USA) is a homogeneous HTS method of measuring kinase activity by quantifying the amount of ATP remaining in solution following a kinase reaction.

Sequence of Phosphatidylinositol 4-kinase beta (Q9UBF8 whole entry): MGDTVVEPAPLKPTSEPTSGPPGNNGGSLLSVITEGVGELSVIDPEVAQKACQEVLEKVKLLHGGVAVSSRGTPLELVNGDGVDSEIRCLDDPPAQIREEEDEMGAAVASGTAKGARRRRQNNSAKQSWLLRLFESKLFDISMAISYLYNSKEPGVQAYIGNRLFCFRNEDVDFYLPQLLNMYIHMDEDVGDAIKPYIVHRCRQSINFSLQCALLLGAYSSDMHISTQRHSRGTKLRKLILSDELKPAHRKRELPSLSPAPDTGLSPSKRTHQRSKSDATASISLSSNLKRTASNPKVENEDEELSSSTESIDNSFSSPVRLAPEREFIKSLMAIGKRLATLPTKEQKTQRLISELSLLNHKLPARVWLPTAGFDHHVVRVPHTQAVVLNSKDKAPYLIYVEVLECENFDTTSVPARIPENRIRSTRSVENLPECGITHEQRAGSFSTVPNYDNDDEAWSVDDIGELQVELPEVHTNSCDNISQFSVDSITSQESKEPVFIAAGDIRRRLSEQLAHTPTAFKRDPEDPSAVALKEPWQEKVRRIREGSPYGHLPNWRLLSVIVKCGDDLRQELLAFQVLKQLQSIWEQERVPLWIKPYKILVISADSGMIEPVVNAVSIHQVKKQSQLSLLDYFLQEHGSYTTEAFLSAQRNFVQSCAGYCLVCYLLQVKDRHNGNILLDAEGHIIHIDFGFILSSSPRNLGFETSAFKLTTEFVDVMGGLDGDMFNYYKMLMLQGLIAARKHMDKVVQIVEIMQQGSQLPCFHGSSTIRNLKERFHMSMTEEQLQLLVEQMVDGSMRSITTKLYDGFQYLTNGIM

`Cc1ccc(S(=O)(=O)NC2CC3(CC(O)C3)C2)cc1-c1cncc(-c2cn(C)nc2C)n1` (centres undefined) [US9862711, Example 6] and `Cc1ccc(S(=O)(=O)NC[C@H]2C[C@@H](O)C2)cc1-c1cncc(-c2cn(C)nc2C)n1` [US9862711, Example 7] cannot be ordered by IC50: > 10 µM for the first, > 10 µM for the second.

`Cc1ccc(S(=O)(=O)N[C@H]2CC[C@H](O)CC2)cc1-c1cncc(-c2csc(CN3CCOCC3)c2)n1` [US9862711, Example 12] and `Cc1cc(-c2cncc(-c3cc(S(=O)(=O)NC[C@H]4C[C@@H](O)C4)ccc3C)n2)n(C)n1` [US9862711, Example 13] cannot be ordered by IC50: > 9.1 µM for the first, > 9.55 µM for the second.
